Test results as given in patent publication US6713057B1, “Compositions and methods for modulating serum cholesterol” (The Johns Hopkins University, priority 1999, dated 2004).

Key:
SREBP-1 [1] = assay: SREBP-1 maturation (Western immunoblot) in hepatocytes transfected with N-SMase plasmids or incubated with r-N-SMase; assay type: cell-based, human; conditions: C-2 ceramide positive control
Protocol: The present example was conducted to address whether the overexpression of N-SMase employing two separate N-SMase plasmid DNA(PHH-1, representing the entire nucleotide sequence in N-SMase cDNA and PHH-11, representing nucleotide sequence 862-1414) would increase the maturation of SREBP-1 and LDL receptor mRNA expression in a human hepatocyte cell line […]. Cells transfected with mock plasmid cDNA(PSV-SPOT) served as a control and cells incubated with C-2 ceramide previously shown to induce SREBP-1 maturation served as a positive control.
Briefly, human hepatocytes(1×10^4) were seeded in sterile 100 mm^2 in medium containing 10% dialyzed, heat inactivated fetal bovine serum without antibiotics. Twenty four hours later medium was replaced with 9 ml of fresh serum free medium. After incubation for 30 min at 37° C. 5-40 μg of the plasmid DNA in 1 ml of a CaCl2 solution (mixed with equal volume of 0.25-2.5 M CaCl2 solution in HEPES buffer and HEPES buffer pH 6.95). Following gentle mixing incubation of cells was continued for 5-24 hr at 37° C. The transfection reaction was terminated by removing the medium and washing the cells with serum free medium. Next, fresh serum supplemented medium was added and incubation was continued for an additional 24 hr and cells were harvested in appropriate buffer centrifuged and stored frozen until further analysis. […]

SREBP-1 [2] = assay: Indirect immunofluorescence of SREBP-1 subcellular localization; assay type: cell-based, human; conditions: 30 minutes after initiating treatment; TNF-α 10 ng/ml, sphingomyelinase 100 mUnits, C2-ceramide 10 μM
Protocol: FIGS. 5A-5D show indirect immunofluorescence of SREBP-1. FIGS. 5A-5D are discussed in more detail as follows. SREBP-1 was visualized with rabbit polyclonal antibodies directed towards the N-terminal DNA binding domain which is common to both the precursor and mature forms. Cells were maintained in media supplemented with 1 μg/ml 25-hydroxycholesterol and 15 μg/ml cholesterol for 24 hours before the experiment. Immunofluorescence was performed as described. All magnifications are 40× and all photographs were taken of samples that were fixed 30 minutes after initiating treatment. FIG. 5A) Control cells, FIG. 5B) Cells treated with TNF-α (10 ng/ml), FIG. 5C) Cells treated with sphingomyelinase (100 mUnits), FIG. 5D) Cells treated with C2-ceramide (10 μM).
Cultured HH-25 cells were grown on coverslips and treated as described. After treatment, the cells were washed 3×5 minutes with PBS containing 1 mM MgCl2 and 0.1 mM CaCl2 (solution A). The cells were fixed with 3% paraformaldehyde in solution A for 10 minutes and permeabilized with 0.5% Triton X-100 in solution A for 6 minutes at room temperature. The coverslips were then washed 3×5 minutes with solution A.
Primary antibody (anti-SREBP1) was used at a dilution of […] in PBS and applied for 1 hour with gentle shaking. The cells were washed as above and a FITC conjugated anti-rabbit IgG secondary antibody, was applied for ½ hour according to the instructions of the manufacturer. The coverslips were washed, mounted on microscope slides and were viewed and photographed at the indicated magnification on a Zeiss Axiovert 25 fluorescence microscope.

LDL receptor mRNA = assay: LDL receptor mRNA, Northern analysis in human hepatocytes; assay type: cell-based; conditions: TNF-α treatment
Protocol: Briefly, human hepatocytes(1×10^4) were seeded in sterile 100 mm^2 in medium containing 10% dialyzed, heat inactivated fetal bovine serum without antibiotics. Twenty four hours later medium was replaced with 9 ml of fresh serum free medium. After incubation for 30 min at 37° C. 5-40 μg of the plasmid DNA in 1 ml of a CaCl2 solution (mixed with equal volume of 0.25-2.5 M CaCl2 solution in HEPES buffer and HEPES buffer pH 6.95). Following gentle mixing incubation of cells was continued for 5-24 hr at 37° C. The transfection reaction was terminated by removing the medium and washing the cells with serum free medium. Next, fresh serum supplemented medium was added and incubation was continued for an additional 24 hr and cells were harvested in appropriate buffer centrifuged and stored frozen until further analysis. Cell pellets were homogenized and suitable aliquots subjected to Western immunoblot analysis as described below and in Examples 1-7 above. Total RNA was isolated from another batch of cells transfected as above and subjected to Northern analysis employing a ^32P labeled LDL receptor consensus sequence. The autoradiographs were developed and photographed.

[3] = system: neutral sphingomyelinase (N-SMase); assay: Neutral sphingomyelinase assay after TNF-α stimulation of HH-25 cells; assay type: cell-based, human; conditions: TNF-α 10 ng/ml
Protocol: FIG. 1 illustrates the effect of TNF-α on neutral sphingomyelinase activity and is explained in more detail as follows: Confluent cultures of HH-25 cells were washed once with PBS and incubated in serum free media for 30 minutes prior to the addition of TNF-α (10 ng/ml). At the indicated time, cells were harvested in PBS, pelleted and frozen. Cells were subsequently lysed as described in materials and methods. N-SMase assays were performed in duplicate as described. Error bars represent ±one standard deviation from the mean.
After stimulation with TNF-α for the indicated time intervals, the cells were washed once with 5 ml PBS and harvested. The pellet was stored frozen at −70° C. and resuspended in 0.5 ml buffer B (100 mM Tris HCl pH 7.4, 0.1% triton X-100, 1 mM EDTA and protease inhibitors). The cell suspension was sonicated 3 times (3 second bursts) using a probe sonicator and centrifuged at 500×g at 4° C. for 5 minutes. The supernatant was used as the enzyme source.
100 μg of protein was assayed for neutral sphingomyelinase activity in a buffer consisting of 5 mM Tris HCl pH 7.4, 0.1% triton X-100, 0.1 mg BSA, 5 mM MgCl2, and […] [^14C] sphingomyelin (12,000 dpm). The assay was incubated at 37° C. for 1.5 hours and terminated with the addition of 1 ml of 10% TCA. […]

Compound: CCCCCCCCCCCCC/C=C/[C@@H](O)[C@H](CO)NC(C)=O [C2-ceramide, N-acetylsphingosine, reference compound]
- maturation of SREBP-1 compared to mock cDNA transfected cells (SREBP-1 [1]; PHH1 5,10,20,40 μg plasmid DNA/dish, PHH11 20 μg/dish): markedly increased
- maturation of SREBP-1 in hepatocytes incubated with protein or ceramide (SREBP-1 [1]; r-N-SMase 0.4, 0.8, 2, and 4 μg/ml): markedly increased
- subcellular localization of SREBP-1 (staining pattern) (SREBP-1 [2]): intense nuclear staining and little extra-nuclear staining

Compound: TNF-α
- LDL receptor mRNA level (LDL receptor mRNA): induces LDL receptor mRNA level
- subcellular localization of SREBP-1 (staining pattern) (SREBP-1 [2]): intense nuclear staining and little extra-nuclear staining
- return of N-SMase activity to control levels [3]: ≤ 1 h
- maximal increase in neutral sphingomyelinase activity ([3]; 15 minutes after addition): 2.5 fold
